Like-named read-outs stand apart in the source and are kept apart here.

The subject of series [1] is serotonin uptake by human blood platelets. Nature of the series: Inhibition of serotonin uptake in human blood platelets. The format is cell-based. The note with it: Platelet, read-out: Inhibition of serotonin uptake I50. The text has this:
It is known that serotonin uptake by the blood platelets is a good model for the uptake of this amine by the neurons (cf. J. Tuomisto, J. Pharm., Pharmac., 26, 92 (1974). When applied to the study of medicaments, any method involving the use of blood platelets is of great interest because it allows the use of human cells, so that its estimation character is good.
"Platelets Function and Thrombosis, a Review of Methods" p. 335 (Plenum Press, London, 1972).
1. Inhibition of Serotonin Uptake
The results are expressed by inhibitory dose 50% or I50 which represents the dose of the product in micromoles per liter which reduce the rate of serotonin uptake by 50%.

Series [2] deals with serotonin release, human blood platelets. The series can be described thus: Serotonin release from human blood platelets. The series is classed as cell-based. To be noted: for activation at 50 µM: Platelet, product concentration 5 × 10^-5 moles per liter, increase relative to controls, human blood platelets, read-out: Percent of increased serotonin release. How it is done: "Platelets Function and Thrombosis, a Review of Methods" p.
The action of the products on serotonin release is tested at a concentration of 5×10^-5 moles per liter.

Series [3] has as its system male mice CD1 (Charles RIVER). Nature of the series: Acute toxicity in male mice CD1, oral administration. The note with it: male CD1 mouse. The format is in vivo. How it is done:
The acute toxicity of the products has been established in male mice CD1 (Charles RIVER) by oral administration. The compounds according to the invention are relatively not very toxic substances. For example, the product of Example 1 is non-toxic in the mouse if administered at a dose of 100 mg/kg.

Turning to `CC(CC1CCNCC1)c1c[nH]c2ccccc12` (stereo not shown) [Example 1, 3-[2-(4-Piperidyl)-1-Methyl-Ethyl]-Indole], the IC50 in series [1] (Homo sapiens) worked out at 50 nM. Also, in series [2], the activation at 50 µM stood at 62%. In addition, the “Acute toxicity at 100 mg/kg” value in series [3] was “non-toxic”.
With `CN(C)CCCN1c2ccccc2CCc2ccccc21` [Imipramine], the IC50 in series [1] (Homo sapiens) worked out at 400 nM. Further, the activation at 50 µM in series [2] was found to be 12%.
`c1ccc2c(CCC3CCNCC3)c[nH]c2c1` [Indalpine, 3-[2-(4-piperidyl)-ethyl]-indole]: the IC50 in series [1] (human blood platelets, dose reducing the rate of serotonin uptake by 50%) is 35 nM. Further, the activation at 50 µM in series [2] was 22%.
Take `CC(N)Cc1ccc(Cl)cc1` (stereo not shown) [p-chloroamphetamine]: the IC50 in series [1] (Homo sapiens) came out at 12000 nM. The activation at 50 µM in series [2] amounted to 51%. Also, the “Serotonin release (in words)” value in series [2] (compared with p-chloroamphetamine) is listed as “induce serotonin release”.

Source of the values: patent US4416888A, “3-(2-(4-Piperidyl)-1-alkyl-ethyl)-indoles and their use as medicaments” (Pharmindustrie, priority 1981, dated 1983).
